Measurements: patent US11427567B2, “Imidazolyl pyrimidinylamine compounds as CDK2 inhibitors” (Incyte Corporation, priority 2019, dated 2022)

target: CDK2/Cyclin E1 (Homo sapiens (Human), UniProt P24941); experiment: CDK2/Cyclin E1 HTRF enzyme activity assay (Example A); type: biochemical; conditions: 1 mM ATP
Method: Assays were conducted in white 384-well polystyrene plates in a final reaction volume of 8 μL. […] HTRF signals were read after 1 hour at room temperature on a PHERAstar FS plate reader (BMG Labtech). Data was analyzed with IDBS XLFit and GraphPad Prism 5.0 software using a three or four parameter dose response curve to determine IC50 for each compound.

| Compound | IC50 [nM] |
| --- | --- |
| [2H]C([2H])([2H])N(Cc1ccc(-n2cc(-c3nc(NC4CCN(S(C)(=O)=O)CC4)ncc3C(F)(F)F)nc2C)c(F)c1)C([2H])([2H])[2H] [Example 280, 4-(1-(4-((Bis(methyl-d)amino)methyl)-2-fluorophenyl)-2-methyl-1H-imidazol-4-yl)-N-(1-(methylsulfonyl)piperidin-4-yl)-5-(trifluoromethyl)pyrimidin-2-amine] | ≤ 50 |
| Cc1nc(-c2nc(NC3CCN(S(C)(=O)=O)CC3)ncc2C(F)(F)F)cn1-c1ccc(CN2CCC2)cc1F [Example 281, 4-(1-(4-(Azetidin-1-ylmethyl)-2-fluorophenyl)-2-methyl-1H-imidazol-4-yl)-N-(1-(methylsulfonyl)piperidin-4-yl)-5-(trifluoromethyl)pyrimidin-2-amine] | ≤ 50 |
| Cc1nc(-c2nc(NC3CCN(S(C)(=O)=O)CC3)ncc2C(F)(F)F)cn1-c1ccc(CN2CC(C(C)(C)O)C2)cc1F [Example 282, 2-(1-(3-Fluoro-4-(2-methyl-4-(2-((1-(methylsulfonyl)piperidin-4-yl)amino)-5-(trifluoromethyl)pyrimidin-4-yl)-1H-imidazol-1-yl)benzyl)azetidin-3-yl)propan-2-ol] | ≤ 50 |
| Cc1nc(-c2nc(NC3CCN(S(C)(=O)=O)CC3)ncc2C(F)(F)F)cn1-c1ccc(CN2CC(C)C2)cc1F [Example 283, 4-(1-(2-Fluoro-4-((3-methylazetidin-1-yl)methyl)phenyl)-2-methyl-1H-imidazol-4-yl)-N-(1-(methylsulfonyl)piperidin-4-yl)-5-(trifluoromethyl)pyrimidin-2-amine] | ≤ 50 |
| Cc1nc(-c2nc(NC3CCN(S(C)(=O)=O)CC3)ncc2C(F)(F)F)cn1-c1ccc(CN2CCC2)cc1Cl [Example 284, 4-(1-(4-(Azetidin-1-ylmethyl)-2-chlorophenyl)-2-methyl-1H-imidazol-4-yl)-N-(1-(methylsulfonyl)piperidin-4-yl)-5-(trifluoromethyl)pyrimidin-2-amine] | ≤ 50 |
| Cc1cc(CN2CCC2)ccc1-n1cc(-c2nc(NC3CCN(S(C)(=O)=O)CC3)ncc2C(F)(F)F)nc1C [Example 285, 4-(1-(4-(Azetidin-1-ylmethyl)-2-methylphenyl)-2-methyl-1H-imidazol-4-yl)-N-(1-(methylsulfonyl)piperidin-4-yl)-5-(trifluoromethyl)pyrimidin-2-amine] | ≤ 50 |
| Cc1nc(-c2nc(N[C@H]3CCN(S(C)(=O)=O)C[C@H]3F)ncc2C(F)(F)F)cn1-c1ccc(CN(C)C)cc1F [Example 286, 4-(1-(4-((Dimethylamino)methyl)-2-fluorophenyl)-2-methyl-1H-imidazol-4-yl)-N-((3R,4S)-3-fluoro-1-(methylsulfonyl)piperidin-4-yl)-5-(trifluoromethyl)pyrimidin-2-amine] | ≤ 50 |
| CNCc1ccc(-n2cc(-c3nc(N[C@H]4CCN(S(C)(=O)=O)C[C@H]4F)ncc3C(F)(F)F)nc2C)c(F)c1 [Example 287, N-((3R,4S)-3-Fluoro-1-(methylsulfonyl)piperidin-4-yl)-4-(1-(2-fluoro-4-((methylamino)methyl)phenyl)-2-methyl-1H-imidazol-4-yl)-5-(trifluoromethyl)pyrimidin-2-amine] | ≤ 50 |
| Cc1nc(-c2nc(NC3CCN(S(C)(=O)=O)CC3)ncc2C#N)cn1-c1ccc(CN(C)C)cc1Cl [Example 288, 4-(1-(2-Chloro-4-((dimethylamino)methyl)phenyl)-2-methyl-1H-imidazol-4-yl)-2-((1-(methylsulfonyl)piperidin-4-yl)amino)pyrimidine-5-carbonitrile] | ≤ 50 |
| CNCc1ccc(-n2cc(-c3nc(NC4CCN(S(C)(=O)=O)CC4)ncc3C#N)nc2C)c(Cl)c1 [Example 289, 4-(1-(2-Chloro-4-((methylamino)methyl)phenyl)-2-methyl-1H-imidazol-4-yl)-2-((1-(methylsulfonyl)piperidin-4-yl)amino)pyrimidine-5-carbonitrile] | ≤ 50 |
| Cc1nc(-c2nc(NC3CCN(S(C)(=O)=O)CC3)ncc2C#N)cn1-c1ccc(C#N)cc1F [Example 290, 4-(1-(4-Cyano-2-fluorophenyl)-2-methyl-1H-imidazol-4-yl)-2-((1-(methylsulfonyl)piperidin-4-yl)amino)pyrimidine-5-carbonitrile] | ≤ 50 |
| COc1nccc(-n2cnc(-c3nc(NC4CCN(S(C)(=O)=O)CC4)ncc3C(F)(F)F)c2)c1C#N [Example 291, 2-Methoxy-4-(4-(2-((1-(methylsulfonyl)piperidin-4-yl)amino)-5-(trifluoromethyl)pyrimidin-4-yl)-1H-imidazol-1-yl)nicotinonitrile] | ≤ 50 |
| Cc1c(-n2cnc(-c3nc(NC4CCN(S(C)(=O)=O)CC4)ncc3C(F)(F)F)c2)ccnc1C#N [Example 292, 3-Methyl-4-(4-(2-((1-(methylsulfonyl)piperidin-4-yl)amino)-5-(trifluoromethyl)pyrimidin-4-yl)-1H-imidazol-1-yl)picolinonitrile] | ≤ 50 |
| Cc1nccc(-n2cnc(-c3nc(NC4CCN(S(C)(=O)=O)CC4)ncc3C(F)(F)F)c2)c1C#N [Example 293, 2-Methyl-4-(4-(2-((1-(methylsulfonyl)piperidin-4-yl)amino)-5-(trifluoromethyl)pyrimidin-4-yl)-1H-imidazol-1-yl)nicotinonitrile] | ≤ 50 |
| CS(=O)(=O)N1CCC(Nc2ncc(C(F)(F)F)c(-c3cn(-c4c(F)cccc4C#N)cn3)n2)CC1 [Example 294, 3-Fluoro-2-(4-(2-((1-(methylsulfonyl)piperidin-4-yl)amino)-5-(trifluoromethyl)pyrimidin-4-yl)-1H-imidazol-1-yl)benzonitrile] | ≤ 50 |
| COc1nccc(-n2cnc(-c3nc(NC4CCN(S(C)(=O)=O)CC4)ncc3C(F)(F)F)c2)c1Cl [Example 295, 4-(1-(3-Chloro-2-methoxypyridin-4-yl)-1H-imidazol-4-yl)-N-(1-(methylsulfonyl)piperidin-4-yl)-5-(trifluoromethyl)pyrimidin-2-amine] | ≤ 50 |
| Cc1nccc(-n2cnc(-c3nc(NC4CCN(S(C)(=O)=O)CC4)ncc3C(F)(F)F)c2)c1Cl [Example 296, 4-(1-(3-Chloro-2-methylpyridin-4-yl)-1H-imidazol-4-yl)-N-(1-(methylsulfonyl)piperidin-4-yl)-5-(trifluoromethyl)pyrimidin-2-amine] | ≤ 50 |
| COc1nccc(-n2cnc(-c3nc(N[C@H]4CCN(S(C)(=O)=O)C[C@H]4F)ncc3C(F)(F)F)c2)c1C#N [Example 297, 4-(4-(2-(((3R,4S)-3-Fluoro-1-(methylsulfonyl)piperidin-4-yl)amino)-5-(trifluoromethyl)pyrimidin-4-yl)-1H-imidazol-1-yl)-2-methoxynicotinonitrile] | ≤ 50 |
| Cc1nc(-c2nc(N[C@H]3CCN(S(C)(=O)=O)C[C@H]3F)ncc2C(F)(F)F)cn1-c1ccncc1F [Example 298, N-((3R,4S)-3-Fluoro-1-(methylsulfonyl)piperidin-4-yl)-4-(1-(3-fluoropyridin-4-yl)-2-methyl-1H-imidazol-4-yl)-5-(trifluoromethyl)pyrimidin-2-amine] | ≤ 50 |
| Cc1nc(-c2nc(N[C@H]3CCN(S(C)(=O)=O)C[C@H]3F)ncc2C(F)(F)F)cn1-c1ccc(C#N)cc1F [Example 299, 3-Fluoro-4-(4-(2-(((3R,4S)-3-fluoro-1-(methylsulfonyl)piperidin-4-yl)amino)-5-(trifluoromethyl)pyrimidin-4-yl)-2-methyl-1H-imidazol-1-yl)benzonitrile] | ≤ 50 |
| COc1nccc(-n2cnc(-c3nc(N[C@H]4CCN(S(C)(=O)=O)C[C@H]4F)ncc3C(F)(F)F)c2)c1Cl [Example 300, 4-(1-(3-Chloro-2-methoxypyridin-4-yl)-1H-imidazol-4-yl)-N-((3R,4S)-3-fluoro-1-(methylsulfonyl)piperidin-4-yl)-5-(trifluoromethyl)pyrimidin-2-amine] | ≤ 50 |
| Cc1nccc(-n2cnc(-c3nc(N[C@H]4CCN(S(C)(=O)=O)C[C@H]4F)ncc3C(F)(F)F)c2)c1Cl [Example 301, 4-(1-(3-Chloro-2-methylpyridin-4-yl)-1H-imidazol-4-yl)-N-((3R,4S)-3-fluoro-1-(methylsulfonyl)piperidin-4-yl)-5-(trifluoromethyl)pyrimidin-2-amine] | ≤ 50 |
| Cc1c(-n2cnc(-c3nc(N[C@H]4CCN(S(C)(=O)=O)C[C@H]4F)ncc3C(F)(F)F)c2)ccnc1C#N [Example 302, 4-(4-(2-(((3R,4S)-3-Fluoro-1-(methylsulfonyl)piperidin-4-yl)amino)-5-(trifluoromethyl)pyrimidin-4-yl)-1H-imidazol-1-yl)-3-methylpicolinonitrile] | ≤ 50 |
| Cc1nc(-c2nc(NC3CCN(S(C)(=O)=O)CC3)ncc2C(F)(F)F)cn1-c1ccc(C#N)cc1F [Example 303, 3-Fluoro-4-(2-methyl-4-(2-((1-(methylsulfonyl)piperidin-4-yl)amino)-5-(trifluoromethyl)pyrimidin-4-yl)-1H-imidazol-1-yl)benzonitrile] | ≤ 50 |
| Cc1nc(-c2nc(NC3CCN(S(C)(=O)=O)CC3)ncc2C(F)(F)F)cn1-c1cccc(C#N)c1F [Example 304, 2-Fluoro-3-(2-methyl-4-(2-((1-(methylsulfonyl)piperidin-4-yl)amino)-5-(trifluoromethyl)pyrimidin-4-yl)-1H-imidazol-1-yl)benzonitrile] | ≤ 50 |
| Cc1nc(-c2nc(N[C@H]3CCN(S(C)(=O)=O)C[C@H]3F)ncc2C(F)(F)F)cn1-c1cccc(C#N)c1F [Example 305, 2-Fluoro-3-(4-(2-(((3R,4S)-3-fluoro-1-(methylsulfonyl)piperidin-4-yl)amino)-5-(trifluoromethyl)pyrimidin-4-yl)-2-methyl-1H-imidazol-1-yl)benzonitrile] | ≤ 50 |
| Cc1c(C#N)cccc1-n1cc(-c2nc(N[C@H]3CCN(S(C)(=O)=O)C[C@H]3F)ncc2C(F)(F)F)nc1C [Example 306, 3-(4-(2-(((3R,4S)-3-Fluoro-1-(methylsulfonyl)piperidin-4-yl)amino)-5-(trifluoromethyl)pyrimidin-4-yl)-2-methyl-1H-imidazol-1-yl)-2-methylbenzonitrile] | ≤ 50 |
